Reference: ChEMBL document CHEMBL2150939, “Synthesis and cytotoxicity of novel ursolic acid derivatives containing an acyl piperazine moiety” (Eur J Med Chem, 2012)

Experiments:
MGC-803 [1] = assay: Growth inhibition of human MGC803 cells at 10 uM after 72 hrs by MTT assay; assay type: functional; settings: MGC-803, 72 h, read-out: GI
Bcap37 [2] = assay: Growth inhibition of human Bcap37 cells at 10 uM after 72 hrs by MTT assay; assay type: functional; settings: Bcap37, 72 h, read-out: GI
[3] = Growth inhibition of mouse NIH/3T3 cells at 10 uM after 72 hrs by MTT assay; assay type: cell-based, NIH3T3; settings: read-out: GI
MGC-803 [4] = assay: Antiproliferative activity against human MGC803 cells after 72 hrs by MTT assay; assay type: functional, cell-based; settings: MGC-803, 72 h
Bcap37 [5] = assay: Antiproliferative activity against human Bcap37 cells after 72 hrs by MTT assay; assay type: functional, cell-based; settings: Bcap37, 72 h

SMILES	inhibition of growth at 10 µM (MGC-803 [1])	inhibition of growth at 10 µM (Bcap37 [2])	inhibition at 72 h, 10 µM [3]	IC50 (MGC-803 [4])	IC50 (Bcap37 [5]; read-out: IC50)	IC50 (Bcap37 [5])
CCCCCCCCC(=O)N1CCN(CCOC(=O)[C@]23CC[C@@H](C)[C@H](C)[C@H]2C2=CC[C@@H]4[C@@]5(C)CC[C@H](O)C(C)(C)[C@@H]5CC[C@@]4(C)[C@]2(C)CC3)CC1	44.2%	12.5%	12%	> 20 µM	–	–
C[C@H]1[C@H](C)CC[C@]2(C(=O)OCCN3CCN(C(=O)c4cccnc4)CC3)CC[C@]3(C)C(=CC[C@@H]4[C@@]5(C)CC[C@H](O)C(C)(C)[C@@H]5CC[C@]43C)[C@H]12	22%	24.5%	52.3%	–	–	–
C[C@H]1[C@H](C)CC[C@]2(C(=O)OCCN3CCN(C(=O)c4ccncc4)CC3)CC[C@]3(C)C(=CC[C@@H]4[C@@]5(C)CC[C@H](O)C(C)(C)[C@@H]5CC[C@]43C)[C@H]12	32.1%	8.3%	55.4%	13.3 µM	–	–
C[C@H]1[C@H](C)CC[C@]2(C(=O)OCCN3CCN(C(=O)c4ccccc4C(F)(F)F)CC3)CC[C@]3(C)C(=CC[C@@H]4[C@@]5(C)CC[C@H](O)C(C)(C)[C@@H]5CC[C@]43C)[C@H]12	71.2%	38.6%	16.2%	8.72 µM	10.9 µM	–
C[C@H]1[C@H](C)CC[C@]2(C(=O)OCCN3CCN(C(=O)Cc4ccc(Cl)cc4)CC3)CC[C@]3(C)C(=CC[C@@H]4[C@@]5(C)CC[C@H](O)C(C)(C)[C@@H]5CC[C@]43C)[C@H]12	68.6%	52%	2.9%	8.59 µM	10 µM	–
Cc1ccccc1C(=O)N1CCN(CCOC(=O)[C@]23CC[C@@H](C)[C@H](C)[C@H]2C2=CC[C@@H]4[C@@]5(C)CC[C@H](O)C(C)(C)[C@@H]5CC[C@@]4(C)[C@]2(C)CC3)CC1	98.9%	94.8%	60.3%	3.59 µM	5.34 µM	–
C[C@H]1[C@H](C)CC[C@]2(C(=O)OCCN3CCN(C(=O)c4ccccc4Cl)CC3)CC[C@]3(C)C(=CC[C@@H]4[C@@]5(C)CC[C@H](O)C(C)(C)[C@@H]5CC[C@]43C)[C@H]12	93%	69.1%	29.8%	4.66 µM	7.26 µM	–
C[C@H]1[C@H](C)CC[C@]2(C(=O)OCCN3CCN(C(=O)c4c(F)cccc4Cl)CC3)CC[C@]3(C)C(=CC[C@@H]4[C@@]5(C)CC[C@H](O)C(C)(C)[C@@H]5CC[C@]43C)[C@H]12	92.1%	85.3%	24.4%	4.18 µM	4.32 µM	–
C[C@H]1[C@H](C)CC[C@]2(C(=O)OCCN3CCN(C(=O)c4ccc([N+](=O)[O-])cc4)CC3)CC[C@]3(C)C(=CC[C@@H]4[C@@]5(C)CC[C@H](O)C(C)(C)[C@@H]5CC[C@]43C)[C@H]12	24.3%	19.1%	65.4%	–	–	–
C[C@H]1[C@H](C)CC[C@]2(C(=O)OCCN3CCN(C(=O)c4cc([N+](=O)[O-])cc([N+](=O)[O-])c4)CC3)CC[C@]3(C)C(=CC[C@@H]4[C@@]5(C)CC[C@H](O)C(C)(C)[C@@H]5CC[C@]43C)[C@H]12	24.7%	10.7%	37.2%	–	–	–
CC(C)c1ccc(C(=O)N2CCN(CCOC(=O)[C@]34CC[C@@H](C)[C@H](C)[C@H]3C3=CC[C@@H]5[C@@]6(C)CC[C@H](O)C(C)(C)[C@@H]6CC[C@@]5(C)[C@]3(C)CC4)CC2)cc1	72.3%	45.5%	5.5%	5.02 µM	11.8 µM	–
C[C@H]1[C@H](C)CC[C@]2(C(=O)OCCN3CCNCC3)CC[C@]3(C)C(=CC[C@@H]4[C@@]5(C)CC[C@H](O)C(C)(C)[C@@H]5CC[C@]43C)[C@H]12	86.6%	84.4%	60.1%	7.25 µM	7.5 µM	–
C[C@H]1[C@H](C)CC[C@]2(C(=O)OCCN3CCN(C(=O)c4cc(Cl)ccc4[N+](=O)[O-])CC3)CC[C@]3(C)C(=CC[C@@H]4[C@@]5(C)CC[C@H](O)C(C)(C)[C@@H]5CC[C@]43C)[C@H]12	57.3%	33.2%	77.7%	9.41 µM	–	–
C[C@H]1[C@H](C)CC[C@]2(C(=O)OCCN3CCN(C(=O)c4ccc(F)cc4)CC3)CC[C@]3(C)C(=CC[C@@H]4[C@@]5(C)CC[C@H](O)C(C)(C)[C@@H]5CC[C@]43C)[C@H]12	71.8%	83.7%	71.3%	7.29 µM	5.12 µM	–
C=C/C=C/CC(=O)N1CCN(CCOC(=O)[C@]23CC[C@@H](C)[C@H](C)[C@H]2C2=CC[C@@H]4[C@@]5(C)CC[C@H](O)C(C)(C)[C@@H]5CC[C@@]4(C)[C@]2(C)CC3)CC1	23.4%	14.7%	35%	–	–	–
C[C@H]1[C@H](C)CC[C@]2(C(=O)OCCN3CCN(C(=O)c4ccnc(Cl)c4)CC3)CC[C@]3(C)C(=CC[C@@H]4[C@@]5(C)CC[C@H](O)C(C)(C)[C@@H]5CC[C@]43C)[C@H]12	24.1%	19%	44.3%	–	–	–
C[C@H]1[C@H](C)CC[C@]2(C(=O)OCCN3CCN(C(=O)c4cccnc4Cl)CC3)CC[C@]3(C)C(=CC[C@@H]4[C@@]5(C)CC[C@H](O)C(C)(C)[C@@H]5CC[C@]43C)[C@H]12	34.3%	29%	4.3%	14 µM	–	–
C[C@H]1[C@H](C)CC[C@]2(C(=O)OCCN3CCN(C(=O)/C=C/c4ccccc4)CC3)CC[C@]3(C)C(=CC[C@@H]4[C@@]5(C)CC[C@H](O)C(C)(C)[C@@H]5CC[C@]43C)[C@H]12	51.1%	54.4%	39%	12.6 µM	9.22 µM	–
CCCCC(CC)C(=O)N1CCN(CCOC(=O)[C@]23CC[C@@H](C)[C@H](C)[C@H]2C2=CC[C@@H]4[C@@]5(C)CC[C@H](O)C(C)(C)[C@@H]5CC[C@@]4(C)[C@]2(C)CC3)CC1 (stereo partly specified)	80.8%	68.6%	54.5%	6.89 µM	4.16 µM	–
C[C@H]1[C@H](C)CC[C@]2(C(=O)OCCBr)CC[C@]3(C)C(=CC[C@@H]4[C@@]5(C)CC[C@H](O)C(C)(C)[C@@H]5CC[C@]43C)[C@H]12	39.4%	23.1%	11%	12.4 µM	–	–
C[C@H]1[C@H](C)CC[C@]2(C(=O)OCCN3CCN(C(=O)c4ccccc4)CC3)CC[C@]3(C)C(=CC[C@@H]4[C@@]5(C)CC[C@H](O)C(C)(C)[C@@H]5CC[C@]43C)[C@H]12	21.4%	23.9%	19.1%	–	–	–
COc1cccc2c1C(=O)c1c(O)c3c(c(O)c1C2=O)C[C@@](O)(C(=O)CO)C[C@@H]3O[C@H]1C[C@H](N)[C@H](O)[C@H](C)O1 [DOXORUBICIN]	92.1%	92.1%	99.2%	0.7 µM	–	1.28 µM
COc1ccc(C(=O)N2CCN(CCOC(=O)[C@]34CC[C@@H](C)[C@H](C)[C@H]3C3=CC[C@@H]5[C@@]6(C)CC[C@H](O)C(C)(C)[C@@H]6CC[C@@]5(C)[C@]3(C)CC4)CC2)cc1OC	24.5%	51.8%	73.1%	–	11.1 µM	–
C[C@H]1[C@H](C)CC[C@]2(C(=O)OCCN3CCN(C(=O)c4cccc(F)c4)CC3)CC[C@]3(C)C(=CC[C@@H]4[C@@]5(C)CC[C@H](O)C(C)(C)[C@@H]5CC[C@]43C)[C@H]12	45.3%	32.1%	33.5%	> 20 µM	–	–
